Laboratory results as given in PubChem BioAssay (NCI).
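Test compounds were applied to cells in 96-well plates for 48 hours at 5 doses. Definition used: TGI = concentration required for complete inhibition of growth.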

What was measured:
Test in all cases: DTP human tumour cell line panel, 48 h
SK-MEL-28 melanoma = system: SK-MEL-28 melanoma
SNB-19 CNS = system: SNB-19 CNS
BT-549 breast = system: BT-549 breast
TK-10 renal = system: TK-10 renal
SK-MEL-5 melanoma = system: SK-MEL-5 melanoma
IGROV1 ovarian = system: IGROV1 ovarian
SN12C renal = system: SN12C renal
UACC-62 melanoma = system: UACC-62 melanoma
HCT-116 colon = system: HCT-116 colon
MDA-N = system: MDA-N
OVCAR-8 ovarian = system: OVCAR-8 ovarian
T-47D breast = system: T-47D breast
UO-31 renal = system: UO-31 renal
MDA-MB-435 = system: MDA-MB-435
A549 NSCLC = system: A549 NSCLC
PC-3 prostate = system: PC-3 prostate
MALME-3M melanoma = system: MALME-3M melanoma

In the case of N#CC(N=Nc1ccccc1)c1nc2ccccc2o1 (centres undefined), the TGI (SK-MEL-28 melanoma) is reported as > 100 µM, the TGI (SNB-19 CNS) is reported as > 100 µM and the TGI (BT-549 breast) is reported as 46 µM. The TGI (TK-10 renal) was 58.3 µM, the TGI (SK-MEL-5 melanoma) was > 100 µM and the TGI (IGROV1 ovarian) was 42.9 µM. The TGI (SN12C renal) was > 100 µM, the TGI (UACC-62 melanoma) was > 100 µM and the TGI (HCT-116 colon) was 57.5 µM. The TGI (MDA-N) was > 100 µM, the TGI (OVCAR-8 ovarian) was 79.4 µM and the TGI (T-47D breast) was 39.9 µM. For the same compound, the TGI (UO-31 renal) was > 100 µM, the TGI (MDA-MB-435) was > 100 µM and the TGI (A549 NSCLC) was > 100 µM. The TGI (PC-3 prostate) was > 100 µM and the TGI (MALME-3M melanoma) was > 100 µM.

In the case of Cc1ccc(S(=O)(=O)/N=C(\[O-])C2=C(c3ccccc3)NN(C)c3nc4cccc[n+]4nc32)cc1, the TGI (SK-MEL-28 melanoma) is reported as > 100 µM, the TGI (SNB-19 CNS) is reported as > 100 µM and the TGI (BT-549 breast) is reported as > 100 µM. For the same compound, the TGI (TK-10 renal) was > 100 µM, the TGI (SK-MEL-5 melanoma) was > 100 µM and the TGI (IGROV1 ovarian) was > 100 µM. The TGI (SN12C renal) was > 100 µM, the TGI (UACC-62 melanoma) was > 100 µM and the TGI (HCT-116 colon) was > 100 µM. The TGI (MDA-N) was > 100 µM, the TGI (OVCAR-8 ovarian) was > 100 µM and the TGI (T-47D breast) was > 100 µM. For the same compound, the TGI (UO-31 renal) was > 100 µM, the TGI (MDA-MB-435) was > 100 µM and the TGI (A549 NSCLC) was > 100 µM. For the same compound, the TGI (PC-3 prostate) was > 100 µM and the TGI (MALME-3M melanoma) was > 100 µM.

With COc1ccc(-n2c3c(c4c(CN(C)C)c(O)ccc42)C(=O)c2ccccc2C3=O)cc1 the TGI (SK-MEL-28 melanoma) was 14.7 µM, the TGI (SNB-19 CNS) was > 100 µM and the TGI (BT-549 breast) was 35.9 µM. It also gave a TGI (TK-10 renal) of 36.8 µM, a TGI (SK-MEL-5 melanoma) of 5.67 µM and a TGI (IGROV1 ovarian) of 23 µM. For the same compound, the TGI (SN12C renal) was 7.15 µM, the TGI (UACC-62 melanoma) was 15.7 µM and the TGI (HCT-116 colon) was 3.98 µM. The TGI (MDA-N) was 21.2 µM, the TGI (OVCAR-8 ovarian) was 20.5 µM and the TGI (T-47D breast) was 6.99 µM. It also gave a TGI (UO-31 renal) of 5.11 µM, a TGI (MDA-MB-435) of 30.9 µM and a TGI (A549 NSCLC) of 37.5 µM. For the same compound, the TGI (PC-3 prostate) was 37.1 µM and the TGI (MALME-3M melanoma) was 27.1 µM.

With O=C(/C=C/c1cccs1)c1cccc(C(=O)/C=C/c2cccs2)n1 the TGI (SK-MEL-28 melanoma) was > 100 µM, the TGI (SNB-19 CNS) was > 85 µM and the TGI (BT-549 breast) was > 100 µM. For the same compound, the TGI (TK-10 renal) was > 100 µM, the TGI (SK-MEL-5 melanoma) was > 100 µM and the TGI (IGROV1 ovarian) was > 100 µM. The TGI (SN12C renal) was > 58.8 µM, the TGI (UACC-62 melanoma) was > 100 µM and the TGI (HCT-116 colon) was 11.3 µM. For the same compound, the TGI (MDA-N) was > 100 µM, the TGI (OVCAR-8 ovarian) was 19.6 µM and the TGI (T-47D breast) was > 100 µM. For the same compound, the TGI (UO-31 renal) was > 100 µM, the TGI (MDA-MB-435) was > 100 µM and the TGI (A549 NSCLC) was > 100 µM. For the same compound, the TGI (PC-3 prostate) was > 100 µM and the TGI (MALME-3M melanoma) was > 100 µM.

For NCCCc1c(-c2ccccc2)nc(N)[nH]c1=O, the TGI (SK-MEL-28 melanoma) was > 100 µM, the TGI (SNB-19 CNS) was > 100 µM and the TGI (BT-549 breast) was > 100 µM. The TGI (TK-10 renal) was > 100 µM, the TGI (SK-MEL-5 melanoma) was > 100 µM and the TGI (IGROV1 ovarian) was > 100 µM. For the same compound, the TGI (SN12C renal) was > 100 µM, the TGI (UACC-62 melanoma) was > 100 µM and the TGI (HCT-116 colon) was > 100 µM. The TGI (MDA-N) was > 100 µM, the TGI (OVCAR-8 ovarian) was > 100 µM and the TGI (T-47D breast) was > 100 µM. For the same compound, the TGI (UO-31 renal) was > 100 µM, the TGI (MDA-MB-435) was > 100 µM and the TGI (A549 NSCLC) was > 100 µM. The TGI (PC-3 prostate) was > 100 µM and the TGI (MALME-3M melanoma) was > 100 µM.

For CCOP(=O)(OCC)/C(C#N)=C/c1cccn1N(C)C, the TGI (SK-MEL-28 melanoma) was > 100 µM, the TGI (SNB-19 CNS) was > 100 µM and the TGI (BT-549 breast) was > 100 µM. For the same compound, the TGI (TK-10 renal) was > 100 µM, the TGI (SK-MEL-5 melanoma) was > 100 µM and the TGI (IGROV1 ovarian) was > 100 µM. The TGI (SN12C renal) was > 100 µM, the TGI (UACC-62 melanoma) was > 100 µM and the TGI (HCT-116 colon) was > 100 µM. The TGI (MDA-N) was > 100 µM, the TGI (OVCAR-8 ovarian) was > 100 µM and the TGI (T-47D breast) was 96.3 µM. For the same compound, the TGI (UO-31 renal) was > 100 µM, the TGI (MDA-MB-435) was > 100 µM and the TGI (A549 NSCLC) was > 100 µM. The TGI (PC-3 prostate) was > 100 µM and the TGI (MALME-3M melanoma) was > 100 µM.

In the case of CC(C)(C)OC(=O)NC(Cc1ccc(OCc2ccccc2)cn1)C(=O)N1CCSCC1 (centres undefined), the TGI (SK-MEL-28 melanoma) is reported as > 100 µM, the TGI (SNB-19 CNS) is reported as > 100 µM and the TGI (BT-549 breast) is reported as 71.7 µM. For the same compound, the TGI (TK-10 renal) was > 100 µM, the TGI (SK-MEL-5 melanoma) was 29.9 µM and the TGI (IGROV1 ovarian) was > 100 µM. For the same compound, the TGI (SN12C renal) was > 100 µM, the TGI (UACC-62 melanoma) was > 100 µM and the TGI (HCT-116 colon) was > 100 µM. For the same compound, the TGI (MDA-N) was > 100 µM, the TGI (OVCAR-8 ovarian) was > 100 µM and the TGI (T-47D breast) was 49.6 µM. The TGI (UO-31 renal) was > 100 µM, the TGI (MDA-MB-435) was > 100 µM and the TGI (A549 NSCLC) was > 100 µM. For the same compound, the TGI (PC-3 prostate) was 98.9 µM and the TGI (MALME-3M melanoma) was > 100 µM.

For O=c1[nH]c2ccc(CC(=S)N3CCN(c4ccccc4)CC3)cc2o1, the TGI (SK-MEL-28 melanoma) was > 100 µM, the TGI (SNB-19 CNS) was > 100 µM and the TGI (BT-549 breast) was > 100 µM. The TGI (TK-10 renal) was > 100 µM, the TGI (SK-MEL-5 melanoma) was > 100 µM and the TGI (IGROV1 ovarian) was > 100 µM. The TGI (SN12C renal) was > 100 µM, the TGI (UACC-62 melanoma) was > 100 µM and the TGI (HCT-116 colon) was > 100 µM. The TGI (MDA-N) was > 76.7 µM, the TGI (OVCAR-8 ovarian) was > 100 µM and the TGI (T-47D breast) was > 100 µM. For the same compound, the TGI (UO-31 renal) was > 100 µM, the TGI (MDA-MB-435) was > 100 µM and the TGI (A549 NSCLC) was > 100 µM. For the same compound, the TGI (PC-3 prostate) was > 100 µM and the TGI (MALME-3M melanoma) was > 100 µM.

With Cc1ccc(/C=N/NC2=NCCN2)s1 the TGI (SK-MEL-28 melanoma) was > 100 µM, the TGI (SNB-19 CNS) was > 100 µM and the TGI (BT-549 breast) was > 100 µM. For the same compound, the TGI (TK-10 renal) was > 100 µM, the TGI (SK-MEL-5 melanoma) was > 100 µM and the TGI (IGROV1 ovarian) was > 100 µM. The TGI (SN12C renal) was > 100 µM, the TGI (UACC-62 melanoma) was > 100 µM and the TGI (HCT-116 colon) was > 100 µM. For the same compound, the TGI (MDA-N) was > 100 µM, the TGI (OVCAR-8 ovarian) was > 100 µM and the TGI (T-47D breast) was > 100 µM. The TGI (UO-31 renal) was > 100 µM, the TGI (MDA-MB-435) was > 100 µM and the TGI (A549 NSCLC) was > 100 µM. For the same compound, the TGI (PC-3 prostate) was > 100 µM and the TGI (MALME-3M melanoma) was > 100 µM.

Compound N#C[C@@]12CCCC(=O)[C@@H]1[C@H]1CCC[C@H]12 has a TGI (SK-MEL-28 melanoma) of 35.3 µM, a TGI (SNB-19 CNS) of 42.4 µM and a TGI (BT-549 breast) of 39.2 µM. It also gave a TGI (TK-10 renal) of 35.3 µM, a TGI (SK-MEL-5 melanoma) of 30.8 µM and a TGI (IGROV1 ovarian) of 32.2 µM. The TGI (SN12C renal) was 35.1 µM, the TGI (UACC-62 melanoma) was 58 µM and the TGI (HCT-116 colon) was 30.8 µM. The TGI (MDA-N) was 38.4 µM, the TGI (OVCAR-8 ovarian) was 47.5 µM and the TGI (T-47D breast) was 41.3 µM. It also gave a TGI (UO-31 renal) of 30 µM, a TGI (MDA-MB-435) of 33.5 µM and a TGI (A549 NSCLC) of 37 µM. The TGI (PC-3 prostate) was 35.7 µM and the TGI (MALME-3M melanoma) was 32.3 µM.

OCCN=C1c2ccccc2C2C(c3ccccc31)C1c3ccccc3C(=NCCO)c3ccccc3C21 (centres undefined) gave a TGI (SK-MEL-28 melanoma) of 36.4 µM, a TGI (SNB-19 CNS) of 41.4 µM and a TGI (BT-549 breast) of 52.3 µM. The TGI (TK-10 renal) was 79.5 µM, the TGI (SK-MEL-5 melanoma) was 35.2 µM and the TGI (IGROV1 ovarian) was 98.5 µM. The TGI (SN12C renal) was 55.8 µM, the TGI (UACC-62 melanoma) was 37.5 µM and the TGI (HCT-116 colon) was 30.3 µM. The TGI (MDA-N) was 31.3 µM, the TGI (OVCAR-8 ovarian) was > 100 µM and the TGI (T-47D breast) was 97 µM. For the same compound, the TGI (UO-31 renal) was 32.6 µM, the TGI (MDA-MB-435) was 40.9 µM and the TGI (A549 NSCLC) was 93 µM. The TGI (PC-3 prostate) was 53.8 µM and the TGI (MALME-3M melanoma) was 75.7 µM.

In the case of Cc1ccc2cccc3c2c1CC1(C3=O)S(=O)(=O)OCCOS1(=O)=O, the TGI (SK-MEL-28 melanoma) is reported as > 100 µM, the TGI (SNB-19 CNS) is reported as > 100 µM and the TGI (BT-549 breast) is reported as > 100 µM. For the same compound, the TGI (TK-10 renal) was > 100 µM, the TGI (SK-MEL-5 melanoma) was > 100 µM and the TGI (IGROV1 ovarian) was > 100 µM. The TGI (SN12C renal) was > 100 µM, the TGI (UACC-62 melanoma) was > 100 µM and the TGI (HCT-116 colon) was > 100 µM. The TGI (MDA-N) was > 100 µM, the TGI (OVCAR-8 ovarian) was > 100 µM and the TGI (T-47D breast) was > 100 µM. For the same compound, the TGI (UO-31 renal) was > 100 µM, the TGI (MDA-MB-435) was > 100 µM and the TGI (A549 NSCLC) was > 100 µM. For the same compound, the TGI (PC-3 prostate) was > 100 µM and the TGI (MALME-3M melanoma) was > 100 µM.
